Reference: patent US6716836B2, “Non-nucleoside reverse transcriptase inhibitors” (Boehringer Ingelheim (Canada) Ltd., priority 2001, dated 2004)

Key:
HIV-1 RT wild type (WT) = biological target: T1, HIV-1 RT wild type (WT) (Human immunodeficiency virus type 1 group M subtype B, UniProt P04585); test: Reverse Transcriptase (RT) assay, wild type enzyme; assay type: biochemical
T1 construct: Heterodimeric RT was eluted using a descending gradient; made in house; host or cells: E. coli
Text: (§1) Among the enzymes for which Human Immunodeficiency Virus (HIV-1) encodes is a reverse transcriptase (1), so-named because it transcribes a DNA copy from an RNA template. This activity can be quantitatively measured in a cell-free enzyme assay, which has been previously described (2), and is based upon the observation that reverse transcriptase is able to use a synthetic template poly r(C) primed with oligo d(G) to transcribe a radio-labelled, acid-precipitable DNA strand utilising ^3H-dGTP as a substrate. The assay described below utilises the wild type (WT) enzyme, which is the predominant form of the enzyme observed with patients infected with HIV-1. Utilisation of mutant RT enzymes (for example, Y181C, prepared by site-directed mutagenesis in which the tyrosine residue at codon 181 has been replaced by a cysteine residue, or the mutants K103N, V106A and Y188C) and analogous assay conditions allows compounds to be evaluated for their effectiveness at inhibiting the mutant enzymes.
(§2) The HIV-1 RT expression clone, pKRT2, was obtained from Yale University (3). An overnight culture, grown in 2×YT medium (37° C., 225 rpm) (4), supplemented with 100 μg/mL ampicillin for positive selection was used to inoculate the 2×YT medium. The culture was incubated (37° C., 225 rpm) until it reached an OD600 of 0.6-0.9. At that time, the repressor inhibitor IPTG (isopropyl P-D-thiogalactopyranoside) was added to 0.5 mM, and the mixture was incubated for an additional 2 hours.
(§3) Purification of recombinant reverse transcriptase was performed using a combination of methods previously described (5). This procedure is summarised briefly as follows: E. Coli containing RT-1 wt or RT-1 (Y181 C) were suspended in 50 mM MES, pH 6.0 containing 10% glycerol, lysed in a French press, centrifuged, and the supernates discarded. Lysate pellets were extracted with buffer A (50 mM MES, pH 6.0, 100 mM KCl, 50 mM KPi, 10% glycerol, 0.02% hexyl-β-glucoside), and re-centrifuged; nucleic acid in supernates was precipitated with 0.1% polyethylenimine. […] Bound RT was eluted with a gradient of 0 to 1.0M
(§4) (NH4)2 SO4 in buffer B. Heparin-Sepharose fractions containing RT were concentrated (Amicon YM-30 membrane), combined with equal volumes of 2.0M (NH4)2SO4 in buffer B and injected onto a 21.5×150 mm TSK Phenyl-5PW HIC HPLC column (Phenomenex). Heterodimeric RT was eluted using a descending gradient of 1.0M to 0M (NH4)2SO4 in buffer B, concentrated, and stored at 4° C.
(§5) The 2.4× concentrated stock reaction mixture was aliquoted and stored at −20° C. The mixture is stable and can be thawed for use in each assay. This enzyme assay has been adapted to a 96 well microtiter plate system, and has been previously described (6). Tris buffer (50 mM, pH 7.8), vehicle (solvent diluted to match the compound dilution), or compounds in vehicle were dispensed into 96-well microtiter plates (10 μL/well; 3 wells/compound). The HIV-1 RT enzyme was thawed, diluted in 50 mM Tris pH 7.8 containing 0.05% Chaps to give 1.5 nM enzyme and 25 μL were dispensed per well. Ten μL of 0.5M EDTA were added to the first three wells of the microtiter plate. EDTA chelates the Mg^2+ present and prevents reverse transcription. This group served as background polymerisation, which was subtracted, from all other groups. Twenty-five μl of the 2.4× reaction mixture was added to all wells and the assay was allowed to incubate at room temperature for 30 minutes. The assay was terminated by precipitating the DNA in each well with 60 μL of sodium pyrophosphate (2% w/v) in 10% trichloroacetic acid (TCA) (10% w/v). The microtiter plate was incubated for 15 minutes at 4° C. and the precipitate was harvested onto #30 glass fibre paper (Schleicher & Schuell) using a Tomtech 96-well harvester. The filters were dried, placed in plastic bags with Betaplate scintillation cocktail (Pharmacia/LKB) and counted in the Betaplate counter (Pharmacia/LKB).
(§6) The calculation for percent inhibition is as follows: [formula] […]

[1] = biological target: T2, HIV-1 RT double mutant K103N/Y181C (Human immunodeficiency virus type 1 group M subtype B, UniProt P04585, K690N/Y768C); test: Reverse Transcriptase (RT) assay, double mutant enzyme; assay type: biochemical
T2 construct: Heterodimeric RT was eluted using a descending gradient; made in house; host or cells: E. coli (inferred; the text describes only wild type and Y181C preparations)
Text: as §1, §2, §3, §4, §5, §6

[2] = test system: HIV replication in T-lymphocytes, virus coding for mutant enzyme K103N/Y181C; test: ELISA (p24) assay for activity in cell culture, mutant virus; assay type: cell-based; settings: Human immunodeficiency virus 1, T-lymphocyte, read-out: EC50 K103N/Y181C
Method: (§7) ELISA Assay for Assessment of Activity in Cell Culture
(§8) Compounds of the invention were tested for their ability to inhibit HIV replication in cell culture. Viruses coding for Wild type and mutant enzymes were used. T-lymphocytes were infected with the virus, infected cells were incubated in the presence of varying amounts of compounds of the invention, and an ELISA assay for the viral protein p24 was used to quantify viral replication. Table 9 lists the results as EC50 (nM).

[3] = test system: HIV replication in T-lymphocytes, virus coding for wild type enzyme; test: ELISA (p24) assay for activity in cell culture, wild type virus; assay type: cell-based; settings: Human immunodeficiency virus 1, T-lymphocyte, read-out: EC50 WT RT
Method: as §7, §8

Row | SMILES | IC50 (HIV-1 RT wild type (WT)) | IC50 [1] | EC50 [2] | EC50 [3]
1 | CCN1c2ncc(CCOc3cccc4c3CS(=O)(=O)N4Cc3cc[n+]([O-])cc3)cc2C(=O)Nc2c(C)ccnc21 [Compound 136] | < 0.1 µM | < 0.1 µM | < 0.1 µM | < 0.1 µM
2 | CCN1c2ncc(CCOc3cccc4c3CS(=O)(=O)N4Cc3ccc[n+]([O-])c3)cc2C(=O)Nc2c(C)ccnc21 [Compound 137] | < 0.1 µM | < 0.1 µM | < 0.1 µM | < 0.1 µM
3 | CCN1c2ncc(CCOc3cccc4c3CS(=O)(=O)N4CC(C)C(=O)O)cc2C(=O)N(C)c2cccnc21 (centres unmarked) [Compound 138] | < 0.1 µM | < 0.1 µM | < 0.1 µM | < 0.1 µM
4 | CCN1c2ncc(CCOc3cccc4c3CS(=O)(=O)N4CC(=O)Nc3cc[n+]([O-])cc3)cc2C(=O)N(C)c2cccnc21 [Compound 141] | < 0.1 µM | < 0.1 µM | < 0.1 µM | < 0.1 µM
5 | CCN1c2ncc(CCOc3cccc4c3CS(=O)(=O)N4CC(=O)Nc3cc[n+]([O-])cc3)cc2C(=O)Nc2c(C)cc(Cl)nc21 [Compound 147] | < 0.1 µM | < 0.1 µM | < 0.1 µM | < 0.1 µM
6 | CCN1c2ncc(CCOc3cccc4c3CNS4(=O)=O)cc2C(=O)N(C)c2cccnc21 [Compound 202] | < 0.1 µM | < 0.1 µM | < 0.1 µM | < 0.1 µM
7 | CCN1c2ncc(CCOc3cccc4c3CNS4(=O)=O)cc2C(=O)Nc2c(C)cc(F)nc21 [Compound 223] | < 0.1 µM | < 0.1 µM | < 0.1 µM | < 0.1 µM
8 | CCN1c2ncc(CCOc3ccc4c(c3)C(C)(C)NS4(=O)=O)cc2C(=O)Nc2c(C)ccnc21 [Compound 311] | < 0.1 µM | 0.1 to 1 µM | < 0.1 µM | < 0.1 µM
9 | CCN1c2ncc(CCOc3cccc4c3CCS(=O)(=O)N4)cc2C(=O)N(C)c2cccnc21 [Compound 601] | < 0.1 µM | < 0.1 µM | < 0.1 µM | < 0.1 µM
10 | CCN1c2ncc(CCOc3cccc4c3CCS(=O)(=O)N4)cc2C(=O)Nc2c(C)cc(F)nc21 [Compound 602] | < 0.1 µM | < 0.1 µM | < 0.1 µM | < 0.1 µM
11 | CCN1c2ncc(CCOc3cccc4c3CCS(=O)(=O)N4CC(=O)OC)cc2C(=O)N(C)c2cccnc21 [Compound 616] | < 0.1 µM | < 0.1 µM | < 0.1 µM | < 0.1 µM
12 | CCN1c2ncc(CCOc3cccc4c3CCS(=O)(=O)N4CCN3CCOCC3)cc2C(=O)N(C)c2cccnc21 [Compound 617] | < 0.1 µM | < 0.1 µM | < 0.1 µM | < 0.1 µM
13 | CCN1c2ncc(CCOc3cccc4c3CCS(=O)(=O)N4Cc3ccncc3)cc2C(=O)N(C)c2cccnc21 [Compound 621] | < 0.1 µM | < 0.1 µM | < 0.1 µM | < 0.1 µM
14 | CCN1c2ncc(CCOc3cccc4c3CCS(=O)(=O)N4CCCC(=O)O)cc2C(=O)N(C)c2cccnc21 [Compound 625] | < 0.1 µM | < 0.1 µM | < 0.1 µM | < 0.1 µM
15 | CCOC(=O)CCCN1c2cccc(OCCc3cnc4c(c3)C(=O)N(C)c3cccnc3N4CC)c2CCS1(=O)=O [Compound 628] | < 0.1 µM | < 0.1 µM | < 0.1 µM | < 0.1 µM
16 | CCN1c2ncc(CCOc3cccc4c3CCS(=O)(=O)N4Cc3cccnc3)cc2C(=O)N(C)c2cccnc21 [Compound 629] | < 0.1 µM | < 0.1 µM | < 0.1 µM | < 0.1 µM
17 | CCN1c2ncc(CCOc3cccc4c3CCS(=O)(=O)N4CCCS(N)(=O)=O)cc2C(=O)N(C)c2cccnc21 [Compound 630] | < 0.1 µM | < 0.1 µM | < 0.1 µM | < 0.1 µM
18 | CCN1c2ncc(CCOc3cccc4c3CCS(=O)(=O)N4CC(=O)NS(C)(=O)=O)cc2C(=O)N(C)c2cccnc21 [Compound 631] | < 0.1 µM | < 0.1 µM | 0.1 to 1 µM | 0.1 to 1 µM
19 | CCN1c2ncc(CCOc3cccc4c3CCS(=O)(=O)N4CCCC(=O)NN)cc2C(=O)N(C)c2cccnc21 [Compound 636] | < 0.1 µM | < 0.1 µM | < 0.1 µM | < 0.1 µM
20 | CCN1c2ncc(CCOc3cccc4c3CCS(=O)(=O)N4CC(=O)NC(C)(C)C(=O)O)cc2C(=O)N(C)c2cccnc21 [Compound 637] | < 0.1 µM | < 0.1 µM | < 0.1 µM | < 0.1 µM
21 | CCN1c2ncc(CCOc3cccc4c3CCS(=O)(=O)N4CC(=O)NC3(C(=O)O)CC3)cc2C(=O)N(C)c2cccnc21 [Compound 638] | < 0.1 µM | < 0.1 µM | < 0.1 µM | < 0.1 µM
22 | CCN1c2ncc(CCOc3cccc4c3CCS(=O)(=O)N4CCOC(N)=O)cc2C(=O)N(C)c2cccnc21 [Compound 639] | < 0.1 µM | < 0.1 µM | < 0.1 µM | < 0.1 µM
23 | CCN1c2ncc(CCOc3cccc4c3CCS(=O)(=O)N4CCCC(=O)NNCC(F)(F)F)cc2C(=O)N(C)c2cccnc21 [Compound 640] | < 0.1 µM | < 0.1 µM | < 0.1 µM | < 0.1 µM
24 | CCN1c2ncc(CCOc3cccc4c3CCS(=O)(=O)N4CC(=O)NC(C)(C)C(=O)NN)cc2C(=O)N(C)c2cccnc21 [Compound 641] | < 0.1 µM | < 0.1 µM | < 0.1 µM | < 0.1 µM
25 | CCN1c2ncc(CCOc3cccc4c3CCN(CCCC(=O)O)S4(=O)=O)cc2C(=O)N(C)c2cccnc21 [Compound 713] | < 0.1 µM | < 0.1 µM | < 0.1 µM | < 0.1 µM
26 | CCN1c2ncc(CCOc3cccc4c3CCN(CCCC(=O)NN)S4(=O)=O)cc2C(=O)N(C)c2cccnc21 [Compound 714] | < 0.1 µM | < 0.1 µM | < 0.1 µM | < 0.1 µM
27 | CCN1c2ncc(CCOc3cccc4c3C=CS(=O)(=O)N4C)cc2C(=O)N(C)c2cccnc21 [Compound 803] | < 0.1 µM | < 0.1 µM | < 0.1 µM | < 0.1 µM
28 | CCN1c2ncc(CCOc3cccc4c3C=CS(=O)(=O)N4C)cc2C(=O)Nc2c(C)ccnc21 [Compound 804] | < 0.1 µM | < 0.1 µM | < 0.1 µM | < 0.1 µM
29 | CCN1c2ncc(CCOc3cccc4c3C=CS(=O)(=O)N4CCCC(=O)O)cc2C(=O)N(C)c2cccnc21 [Compound 809] | < 0.1 µM | 0.1 to 1 µM | < 0.1 µM | < 0.1 µM
